# Measurements as given in US20240158370A1, “CK1 alpha AND DUAL CK1 alpha / GSPT1 DEGRADING COMPOUNDS” (Innovo Therapeutics, Inc., priority 2022, published 2024).
# Assays:
# GSPT1 = GSPT1 (Homo sapiens, UniProt P15170+Q96SW2); assay: HiBiT degradation assay, GSPT1, Procedure A; format: cell-based; parameters: HiBit-GSPT1 KI HEK293(LgBit) Cells; host or cells: HEK293(LgBit) knock-in cells; details: six hours incubation
# In short: (§1)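 10-pt dose response, 10–0.005 μM, 0.1% DMSO; cells 1×10^6/ml in DMEM/10% FBS, 6 h, 37° C; HiBiT lytic detection, luminescence; DC50 + Ymin by 4-parameter fit.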
# CK1α = molecular target: T1, CK1α (Homo sapiens, UniProt P48729+Q96SW2); assay: HiBiT degradation assay, CK1α, Procedure A; format: cell-based; details: six hours incubation
# T1 construct: CSNK1A1-HiBit KI HEK293(LgBit) Cells; host or cells: HEK293(LgBit) knock-in cells
# T1 sequence (P48729 whole entry): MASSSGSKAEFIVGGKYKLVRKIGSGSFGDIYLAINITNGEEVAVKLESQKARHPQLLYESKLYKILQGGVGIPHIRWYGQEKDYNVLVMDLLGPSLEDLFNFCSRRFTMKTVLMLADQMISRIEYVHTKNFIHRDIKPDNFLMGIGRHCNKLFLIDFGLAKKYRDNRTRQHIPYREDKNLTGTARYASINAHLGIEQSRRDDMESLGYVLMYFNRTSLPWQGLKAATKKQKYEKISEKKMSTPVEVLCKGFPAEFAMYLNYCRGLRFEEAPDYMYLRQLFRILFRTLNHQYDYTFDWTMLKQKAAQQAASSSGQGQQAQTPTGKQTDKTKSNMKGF
# T1 sequence (Q96SW2 whole entry): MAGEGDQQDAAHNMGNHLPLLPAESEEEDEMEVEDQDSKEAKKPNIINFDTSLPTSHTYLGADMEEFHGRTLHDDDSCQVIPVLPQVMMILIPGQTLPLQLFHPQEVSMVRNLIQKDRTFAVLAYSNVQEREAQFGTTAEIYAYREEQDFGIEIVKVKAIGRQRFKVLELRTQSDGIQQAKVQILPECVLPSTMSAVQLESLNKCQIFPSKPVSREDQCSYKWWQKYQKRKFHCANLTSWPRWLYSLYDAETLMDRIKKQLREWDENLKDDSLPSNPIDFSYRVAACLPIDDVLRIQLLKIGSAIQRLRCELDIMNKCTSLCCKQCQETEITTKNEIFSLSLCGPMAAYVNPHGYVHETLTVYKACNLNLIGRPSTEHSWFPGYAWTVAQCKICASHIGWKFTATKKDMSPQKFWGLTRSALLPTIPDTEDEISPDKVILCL
# T1 sequence (Q16531 whole entry partner): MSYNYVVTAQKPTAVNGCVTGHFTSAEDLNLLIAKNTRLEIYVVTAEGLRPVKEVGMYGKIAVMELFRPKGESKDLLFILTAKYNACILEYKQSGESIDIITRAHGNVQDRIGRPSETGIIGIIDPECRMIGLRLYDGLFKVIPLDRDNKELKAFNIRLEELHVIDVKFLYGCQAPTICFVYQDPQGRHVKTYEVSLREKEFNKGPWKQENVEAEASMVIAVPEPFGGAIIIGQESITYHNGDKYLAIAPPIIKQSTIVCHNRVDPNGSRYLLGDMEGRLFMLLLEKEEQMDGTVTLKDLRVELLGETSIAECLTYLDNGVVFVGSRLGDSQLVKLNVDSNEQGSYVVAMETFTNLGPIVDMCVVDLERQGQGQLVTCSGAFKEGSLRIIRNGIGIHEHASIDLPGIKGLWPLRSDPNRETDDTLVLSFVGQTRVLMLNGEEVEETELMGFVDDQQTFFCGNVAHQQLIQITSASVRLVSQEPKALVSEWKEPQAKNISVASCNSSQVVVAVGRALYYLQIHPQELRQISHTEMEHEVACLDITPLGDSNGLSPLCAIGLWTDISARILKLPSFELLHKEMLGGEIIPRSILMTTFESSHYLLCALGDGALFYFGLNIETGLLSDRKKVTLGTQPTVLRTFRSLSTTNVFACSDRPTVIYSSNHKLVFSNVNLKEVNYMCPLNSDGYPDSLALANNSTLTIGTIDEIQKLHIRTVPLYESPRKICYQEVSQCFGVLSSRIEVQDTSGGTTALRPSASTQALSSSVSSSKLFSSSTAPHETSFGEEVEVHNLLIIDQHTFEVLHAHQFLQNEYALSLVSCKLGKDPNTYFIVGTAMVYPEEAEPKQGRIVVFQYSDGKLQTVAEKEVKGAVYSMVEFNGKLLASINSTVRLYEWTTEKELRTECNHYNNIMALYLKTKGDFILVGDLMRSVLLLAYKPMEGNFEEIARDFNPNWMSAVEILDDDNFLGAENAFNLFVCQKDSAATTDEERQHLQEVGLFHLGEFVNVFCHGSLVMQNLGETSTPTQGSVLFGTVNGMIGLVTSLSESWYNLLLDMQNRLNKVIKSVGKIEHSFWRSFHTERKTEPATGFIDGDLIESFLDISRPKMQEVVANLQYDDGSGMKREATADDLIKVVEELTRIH
# In short: as §1
# Chain of GSPT1 (P15170 whole entry): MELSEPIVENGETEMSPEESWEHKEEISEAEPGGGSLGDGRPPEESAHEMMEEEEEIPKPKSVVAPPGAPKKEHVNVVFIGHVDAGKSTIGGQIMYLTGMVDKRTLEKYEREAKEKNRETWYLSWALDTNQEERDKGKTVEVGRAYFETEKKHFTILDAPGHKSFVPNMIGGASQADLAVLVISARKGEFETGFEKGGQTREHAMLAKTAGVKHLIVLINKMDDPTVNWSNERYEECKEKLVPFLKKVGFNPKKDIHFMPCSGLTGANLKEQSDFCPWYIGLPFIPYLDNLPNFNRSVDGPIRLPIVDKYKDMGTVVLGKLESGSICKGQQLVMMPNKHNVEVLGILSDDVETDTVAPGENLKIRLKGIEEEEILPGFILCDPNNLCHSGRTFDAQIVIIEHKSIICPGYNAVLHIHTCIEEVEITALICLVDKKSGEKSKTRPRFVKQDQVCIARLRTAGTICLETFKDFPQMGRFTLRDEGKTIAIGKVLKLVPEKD
# Chain of GSPT1 (Q96SW2 whole entry): as the sequence (Q96SW2 whole entry) above
# Chain of GSPT1 (Q16531 whole entry partner): as the sequence (Q16531 whole entry partner) above
SMILES,DC50 (GSPT1),GSPT1 Ymin (GSPT1),CK1α Ymin (CK1α),DC50 (CK1α)
Cn1cnc(-c2ccc3c(c2)CN(C2CCC(=O)NC2=O)C3=O)c1-c1ccc(C(=O)N2CCOCC2)cc1 (stereo not shown) [Example 314],≥ 25 nM,F (F = >75-100% remaining),E (E = >25-75% remaining),≥ 25 nM
Cn1cnc(-c2ccc3c(c2)CN(C2CCC(=O)NC2=O)C3=O)c1-c1ccc(N2CCOCC2)c(Cl)c1 (stereo not shown) [Example 315],≥ 25 nM,F (F = >75-100% remaining),D (D = >10- 25% remaining),< 25 nM
Cn1cnc(-c2ccc3c(c2)CN(C2CCC(=O)NC2=O)C3=O)c1C1CC1 (stereo not shown) [Example 316],< 25 nM,F (F = >75-100% remaining),D (D = >10- 25% remaining),< 25 nM
Cn1cnc(-c2ccc3c(c2)CN(C2CCC(=O)NC2=O)C3=O)c1-c1ccncc1 (stereo not shown) [Example 317],≥ 25 nM,F (F = >75-100% remaining),D (D = >10- 25% remaining),< 25 nM
Cn1cnc(-c2ccc3c(c2)CN(C2CCC(=O)NC2=O)C3=O)c1-c1ccnn1C (stereo not shown) [Example 318],< 25 nM,F (F = >75-100% remaining),E (E = >25-75% remaining),< 25 nM
Cc1nocc1-c1c(-c2ccc3c(c2)CN(C2CCC(=O)NC2=O)C3=O)ncn1C (stereo not shown) [Example 320],≥ 25 nM,F (F = >75-100% remaining),D (D = >10- 25% remaining),< 25 nM
Cc1cncc(-c2c(-c3ccc4c(c3)CN(C3CCC(=O)NC3=O)C4=O)ncn2C)c1 (stereo not shown) [Example 321],≥ 25 nM,F (F = >75-100% remaining),D (D = >10- 25% remaining),< 25 nM
Cc1c(-c2c(-c3ccc4c(c3)CN(C3CCC(=O)NC3=O)C4=O)ncn2C)cnn1C (stereo not shown) [Example 322],< 25 nM,F (F = >75-100% remaining),C (C = 0-10% remaining),< 25 nM
Cc1nn(C)cc1-c1c(-c2ccc3c(c2)CN(C2CCC(=O)NC2=O)C3=O)ncn1C (stereo not shown) [Example 323],≥ 25 nM,F (F = >75-100% remaining),E (E = >25-75% remaining),≥ 25 nM
Cc1cc(-c2c(-c3ccc4c(c3)CN(C3CCC(=O)NC3=O)C4=O)ncn2C)n(C)n1 (stereo not shown) [Example 324],≥ 25 nM,F (F = >75-100% remaining),E (E = >25-75% remaining),≥ 25 nM
Cn1cnc(-c2ccc3c(c2)CN(C2CCC(=O)NC2=O)C3=O)c1-c1cnc(C#N)nc1 (stereo not shown) [Example 325],≥ 25 nM,F (F = >75-100% remaining),E (E = >25-75% remaining),≥ 25 nM
Cn1cnc(-c2ccc3c(c2)CN(C2CCC(=O)NC2=O)C3=O)c1-c1cnn(C2CC2)c1 (stereo not shown) [Example 326],< 25 nM,F (F = >75-100% remaining),C (C = 0-10% remaining),< 25 nM
COc1ncccc1-c1c(-c2ccc3c(c2)CN(C2CCC(=O)NC2=O)C3=O)ncn1C (stereo not shown) [Example 327],< 25 nM,F (F = >75-100% remaining),D (D = >10- 25% remaining),< 25 nM
Cn1cnc(-c2ccc3c(c2)CN(C2CCC(=O)NC2=O)C3=O)c1-c1ccn(C)c(=O)c1 (stereo not shown) [Example 328],≥ 25 nM,F (F = >75-100% remaining),D (D = >10- 25% remaining),≥ 25 nM
COc1ccc(-c2c(-c3ccc4c(c3)CN(C3CCC(=O)NC3=O)C4=O)ncn2C)cn1 (stereo not shown) [Example 329],≥ 25 nM,E (E = >25-75% remaining),C (C = 0-10% remaining),< 25 nM
CC(C)n1cc(-c2c(-c3ccc4c(c3)CN(C3CCC(=O)NC3=O)C4=O)ncn2C)cn1 (stereo not shown) [Example 330],≥ 25 nM,F (F = >75-100% remaining),E (E = >25-75% remaining),< 25 nM
Cn1cnc(-c2ccc3c(c2)CN(C2CCC(=O)NC2=O)C3=O)c1-c1cnn(-c2ccccc2)c1 (stereo not shown) [Example 332],≥ 25 nM,F (F = >75-100% remaining),D (D = >10- 25% remaining),< 25 nM

SMILES,DC50 (GSPT1),GSPT1 Ymin (GSPT1),CK1α Ymin (CK1α),DC50 (CK1α)
"O=C1CCC(N2Cc3cc(-c4cnn(C(F)(F)F)c4-c4ccccc4)ccc3C2=O)C(=O)N1 (stereo not shown) [Example 333, 3-(1-oxo-5-(5-phenyl-1-(trifluoromethyl)-1H-pyrazol-4-yl)isoindolin-2-yl)piperidine-2,6-dione]",≥ 25 nM,E (E = >25-75% remaining),E (E = >25-75% remaining),< 25 nM
"CC(F)(F)Cn1ncc(-c2ccc3c(c2)CN(C2CCC(=O)NC2=O)C3=O)c1-c1ccccc1 (stereo not shown) [Example 336, 3-(5-(1-(2,2-difluoropropyl)-5-phenyl-1H-pyrazol-4-yl)-1-oxoisoindolin-2-yl)piperidine-2,6-dione]",≥ 25 nM,F (F = >75-100% remaining),D (D = >10- 25% remaining),≥ 25 nM
"O=C1CCC(N2Cc3cc(-c4cc(-c5ccccc5)n(C(F)F)n4)ccc3C2=O)C(=O)N1 (stereo not shown) [Example 337, 3-(5-(1-(difluoromethyl)-5-phenyl-1H-pyrazol-3-yl)-1-oxoisoindolin-2-yl)piperidine-2,6-dione]",≥ 25 nM,F (F = >75-100% remaining),D (D = >10- 25% remaining),≥ 25 nM
"Cc1c(-c2ccc3c(c2)CN(C2CCC(=O)NC2=O)C3=O)nc(-c2ccccc2)n1C (stereo not shown) [Example 338, 3-(5-(1,5-dimethyl-2-phenyl-1H-imidazol-4-yl)-1-oxoisoindolin-2-yl)piperidine-2,6-dione]",≥ 25 nM,F (F = >75-100% remaining),C (C = 0-10% remaining),< 25 nM
"Cn1ncc(-c2ccc3c(c2)CN(C2CCC(=O)NC2=O)C3=O)c1-c1ccc(OC(F)(F)F)cc1 (stereo not shown) [Example 340, 3-(5-(1-methyl-5-(4-(trifluoromethoxy)phenyl)-1H-pyrazol-4-yl)-1-oxoisoindolin-2-yl)piperidine-2,6-dione]",< 25 nM,F (F = >75-100% remaining),E (E = >25-75% remaining),< 25 nM
"COc1ccc(-c2nn(C(F)F)cc2-c2ccc3c(c2)CN(C2CCC(=O)NC2=O)C3=O)cc1F (stereo not shown) [Example 341, 3-(5-(1-(difluoromethyl)-3-(3-fluoro-4-methoxyphenyl)-1H-pyrazol-4-yl)-1-oxoisoindolin-2-yl)piperidine-2,6-dione]",≥ 25 nM,F (F = >75-100% remaining),E (E = >25-75% remaining),< 25 nM
Cn1cnc(-c2ccc3c(c2)CN(C2CCC(=O)NC2=O)C3=O)c1-c1ccc(C#N)s1 (stereo not shown) [Example 342],≥ 25 nM,F (F = >75-100% remaining),F (F = >75-100% remaining),≥ 25 nM
Cn1cnc(-c2ccc3c(c2)CN(C2CCC(=O)NC2=O)C3=O)c1-c1cccc(N)c1 (stereo not shown) [Example 343],≥ 25 nM,F (F = >75-100% remaining),C (C = 0-10% remaining),< 25 nM
Cc1ccsc1-c1c(-c2ccc3c(c2)CN(C2CCC(=O)NC2=O)C3=O)ncn1C (stereo not shown) [Example 344],≥ 25 nM,F (F = >75-100% remaining),E (E = >25-75% remaining),< 25 nM
COc1cccc(-c2c(-c3ccc4c(c3)CN(C3CCC(=O)NC3=O)C4=O)ncn2C)c1 (stereo not shown) [Example 345],≥ 25 nM,F (F = >75-100% remaining),E (E = >25-75% remaining),< 25 nM
Cn1cnc(-c2ccc3c(c2)CN(C2CCC(=O)NC2=O)C3=O)c1-c1ccc2[nH]ccc2c1 (stereo not shown) [Example 346],≥ 25 nM,F (F = >75-100% remaining),D (D = >10- 25% remaining),< 25 nM
Cn1cnc(-c2ccc3c(c2)CN(C2CCC(=O)NC2=O)C3=O)c1-c1ccccc1C1CC1 (stereo not shown) [Example 347],≥ 25 nM,F (F = >75-100% remaining),E (E = >25-75% remaining),< 25 nM
Cn1cnc(-c2ccc3c(c2)CN(C2CCC(=O)NC2=O)C3=O)c1-c1ccsc1Cl (stereo not shown) [Example 348],≥ 25 nM,F (F = >75-100% remaining),E (E = >25-75% remaining),< 25 nM
Cn1cnc(-c2ccc3c(c2)CN(C2CCC(=O)NC2=O)C3=O)c1-c1cccc2c1OCC2 (stereo not shown) [Example 349],< 25 nM,F (F = >75-100% remaining),C (C = 0-10% remaining),< 25 nM
Cn1cnc(-c2ccc3c(c2)CN(C2CCC(=O)NC2=O)C3=O)c1-c1cc(F)ccc1Cl (stereo not shown) [Example 350],≥ 25 nM,F (F = >75-100% remaining),D (D = >10- 25% remaining),≥ 25 nM
COc1cc(-c2c(-c3ccc4c(c3)CN(C3CCC(=O)NC3=O)C4=O)ncn2C)ccc1Cl (stereo not shown) [Example 351],≥ 25 nM,F (F = >75-100% remaining),D (D = >10- 25% remaining),≥ 25 nM
Cn1cnc(-c2ccc3c(c2)CN(C2CCC(=O)NC2=O)C3=O)c1-c1cccc(-c2cccnc2)c1 (stereo not shown) [Example 352],≥ 25 nM,F (F = >75-100% remaining),C (C = 0-10% remaining),< 25 nM
